According to patent US7834013B2, “Aminophenylcyclopropyl carboxylic acids and derivatives as agonists to GPR40” (GlaxoSmithKline LLC, priority 2003, dated 2010):
Counter-ions that a name gives are not always drawn.

Target: T1, GPR40 (Homo sapiens, UniProt O14842)
T1 construct: expressed in transfected cells
Test: GPR40 SAR Primary Assay (Elk-1/Gal4-luc+ reporter, luciferase activity)
Format: cell-based
Conditions: stable GPR40 Elk-1/Gal4-luc+ CHO cell line, 5 hours incubation
Method: An existing stable GPR40 Elk-1/Gal4-luc^+ CHO cell line generated by electroporation and functional cloning was used. Cells were maintained in a humidified incubator at 37° C./5% CO2 in complete media containing DMEM/F12 (Gibco, #11039-021), 5% FBS (Gibco, #16140-071) and 1% Glutamine (Gibco, #25030-081). Cell maintenance passages were made at 1:40 dilution every 3-4 days. Forty eight hours prior to assay, 15e6 cells were added to 200 ml of complete media then seeded into a 1200 cm^2-cell factory and returned to a humidified incubator at 37° C./5% CO2. 20 hours prior to assay, the growth media was removed and replaced with 200 ml of serum-free DMEM/F12 to quiesce background activity. At the time of assay, cells were harvested using non-enzymatic cell dissociation solution (Sigma, #C-5914), washed and counted. The 20 hour starve media was collected and used as condition media for cell assay plating. Cells were plated at a concentration of 10,000 cells/well in a total well volume of […] in black 96-well clear bottom polystyrene plates (CoStar, #3904). Test compounds were prepared as serial dilutions in 100% DMSO, then 1 ul was delivered to each well resulting in a final concentration of 1% DMSO. The plates were then returned to a humidified incubator at 37° C./5% CO2 for 5 hours. Following the incubation, the medium was replaced with 50 ul of a 1:1 mixture of SteadyGlo™ (Promega, #E2550) and dPBS containing 1 mM CaCl2 and 1 mM MgCl2. Plates were then sealed and subjected to dark adaptation at room temperature for 10 minutes. Luciferase activity was measured on a Packard TopCount™ microplate scintillation counter using 2 seconds per well count time.
Data analysis was performed using standard methods.
The Normalization Equation used was 100*(Unknown compound response−Background response)/(Agonist Max response−Background response).
The Curve Fit Function used was y=((Vmax*x^n)/(K^n+x^n))+Y2.
A percent max response and pEC50 were recorded for each compound. Although specific pEC50 values are given, these values should be considered exemplary. Those skilled in the art will appreciate the variability in performing and recording the biological activity assays that are herein described. The compounds of the present invention provide a pEC50 of at least 5.0.

T1 sequence (O14842 whole entry): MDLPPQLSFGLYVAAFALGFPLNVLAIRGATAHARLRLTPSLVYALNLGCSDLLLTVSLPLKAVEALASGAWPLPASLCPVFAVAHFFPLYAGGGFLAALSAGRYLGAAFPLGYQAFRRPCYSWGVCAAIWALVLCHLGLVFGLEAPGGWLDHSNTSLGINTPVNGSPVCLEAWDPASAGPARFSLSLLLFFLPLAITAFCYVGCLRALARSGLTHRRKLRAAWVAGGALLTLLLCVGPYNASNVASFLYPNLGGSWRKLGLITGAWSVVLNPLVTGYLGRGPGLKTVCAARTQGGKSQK

| EC50 [nM] | Compound |
| --- | --- |
| 2 | O=C(O)C1CC1c1ccc(NCc2cccc(Oc3ccc(Cl)c(Cl)c3)c2)cc1 (racemic) [Example 4, Racemic-(trans)-2-{4-[({3-[(3,4-dichlorophenyl)oxy]phenyl}methyl)ammonium]phenyl}-cyclopropanecarboxylic Acid Trifluoroacetate] |
| 20 | CC(C)(C)c1ccc(Oc2cccc(CNc3ccc(C4CC4C(=O)O)cc3)c2)cc1 (racemic) [Example 7, Racemic-(trans)-2-(4-{[(3-{[4-(1,1-dimethylethyl)phenyl]oxy}phenyl)methyl]ammonium}phenyl)cyclopropanecarboxylic Acid Trifluoroacetate] |
| 6.31 | O=C(O)C1CC1c1ccc(NCc2cccc(Oc3cc(Cl)cc(Cl)c3)c2)cc1 (racemic) [Example 8, Racemic-(trans)-2-{4-[({3-[(3,5-dichlorophenyl)oxy]phenyl}methyl)ammonium]phenyl}-cyclopropanecarboxylic Acid Trifluoroacetate] |
| 7.94 | O=C(O)C1CC1c1ccc(NCc2cccc(Oc3cccc(C(F)(F)F)c3)c2)cc1 (racemic) [Example 9, Racemic-(trans)-2-(4-{[(3-{[3-(trifluoromethyl)phenyl]oxy}phenyl)methyl]ammonium}-phenyl)cyclopropanecarboxylic Acid Trifluoroacetate] |
| 15.8 | CC(C)c1nc(-c2ccc(C(F)(F)F)cc2)sc1CNc1ccc([C@@H]2C[C@H]2C(=O)O)cc1 (racemic) [Example 14, Racemic-(trans)-2-{4-[({4-isopropyl-2-[4-(trifluoromethyl)phenyl]-1,3-thiazol-5-yl}methyl)amino]phenyl}cyclopropanecarboxylic Acid] |
| 251 | Cc1nc(Oc2ccc(F)c(F)c2)sc1CNc1ccc([C@@H]2C[C@H]2C(=O)O)cc1 (racemic) [Example 17, Racemic-(trans)-2-{4-[({2-[(3,4-difluorophenyl)oxy]-4-methyl-1,3-thiazol-5-yl}methyl)amino]phenyl}cyclopropanecarboxylic Acid] |
| 158 | O=C(O)[C@@H]1C[C@H]1c1ccc(NCc2cc(-c3ccc(C(F)(F)F)cc3)co2)cc1 (racemic) [Example 20, Racemic-(trans)-2-{4-[({4-[4-(trifluoromethyl)phenyl]-2-furanyl}methyl)amino]phenyl}cyclopropanecarboxylic Acid] |
| 31.6 | O=C(O)[C@H]1C[C@@H]1c1ccc(NCc2cccc(Sc3ccccc3)c2)cc1 (racemic) [Example 23, Racemic-(trans)-2-[4-({[3-(phenylthio)phenyl]methyl}amino)phenyl]cyclopropanecarboxylic Acid Trifluoroacetate] |

Continued, compound first:

| Compound | EC50 [nM] |
| --- | --- |
| O=C(O)C1CC1c1ccc(NCc2cccc(Oc3ccccc3)c2)cc1 (racemic) [Example 1, Racemic-(trans)-2-[4-({[3-(phenyloxy)phenyl]methyl}ammonium)phenyl]cyclopropanecarboxylic Acid Trifluoroacetate] | 12.6 |
| O=C(O)[C@@H]1C[C@H]1c1ccc(NCc2ccc(-c3ccccc3)cc2)cc1 (racemic) [Example 2, Racemic-(trans)-2-{4-[(4-biphenylylmethyl)amino]phenyl}cyclopropanecarboxylic Acid] | 25.1 |
| O=C(O)[C@@H]1C[C@H]1c1ccc(NCc2ccc(-c3ccccn3)cc2)cc1 (racemic) [Example 3, Racemic-(trans)-2-[4-({[4-(2-pyridinyl)phenyl]methyl}amino)phenyl]cyclopropanecarboxylic Acid] | 1580 |
| COc1ccc(Oc2cccc(CNc3ccc(C4CC4C(=O)O)cc3)c2)cc1 (racemic) [Example 5, Racemic-(trans)-2-(4-{[(3-{[4-(methyloxy)phenyl]oxy}phenyl)methyl]ammonium}phenyl)-cyclopropanecarboxylic Acid Trifluoroacetate] | 20 |
| O=C(O)C1CC1c1ccc(NCc2cccc(Oc3ccc(Cl)cc3)c2)cc1 (racemic) [Example 6, Racemic-(trans)-2-{4-[({3-[(4-chlorophenyl)oxy]phenyl}methyl)ammonium]phenyl}-cyclopropanecarboxylic Acid Trifluoroacetate] | 15.8 |
| Cc1ccc(Oc2cccc(CNc3ccc(C4CC4C(=O)O)cc3)c2)cc1 (racemic) [Example 10, Racemic-(trans)-2-{4-[({3-[(4-methylphenyl)oxy]phenyl}methyl)ammonium]phenyl}-cyclopropanecarboxylic Acid Trifluoroacetate] | 10 |
| O=C(O)C1CC1c1ccc(NCc2cccc(OCc3ccccc3)c2)cc1 (racemic) [Example 11, Racemic-(trans)-2-{4-[({3-[(phenylmethyl)oxy]phenyl}methyl)ammonium]phenyl}-cyclopropanecarboxylic Acid Trifluoroacetate] | 126 |
| Cc1nc(Oc2ccccc2)sc1CNc1ccc(C2CC2C(=O)O)cc1 (racemic) [Example 12, Racemic-(trans)-2-[4-({[4-methyl-2-(phenyloxy)-1,3-thiazol-5-yl]methyl}ammonium)-phenyl]cyclopropanecarboxylic Acid Trifluoroacetate] | 398 |
| Cc1nc(-c2ccc(C(F)(F)F)cc2)sc1CNc1ccc([C@@H]2C[C@H]2C(=O)O)cc1 (racemic) [Example 13, Racemic-(trans)-2-{4-[({4-methyl-2-[4-(trifluoromethyl)phenyl]-1,3-thiazol-5-yl}methyl)amino]phenyl}cyclopropanecarboxylic Acid] | 20 |
| O=C(O)[C@@H]1C[C@H]1c1ccc(NCc2ccc(-c3ccc(Cl)cc3)o2)cc1 (racemic) [Example 15, Racemic-(trans)-2-[4-({[5-(4-chlorophenyl)-2-furanyl]methyl}amino)phenyl]cyclopropanecarboxylic Acid] | 126 |
| O=C(O)[C@@H]1C[C@H]1c1ccc(NCc2ccc(OCc3ccccc3)cc2)cc1 (racemic) [Example 16, Racemic-(trans)-2-{4-[({4-[(phenylmethyl)oxy]phenyl}methyl)amino]phenyl}cyclopropanecarboxylic Acid trifluoroacetate] | 63.1 |
| O=C(O)[C@@H]1C[C@H]1c1ccc(NCc2ccc(-c3ccc(C(F)(F)F)cc3)o2)cc1 (racemic) [Example 18, Racemic-(trans)-2-{4-[({5-[4-(trifluoromethyl)phenyl]-2-furanyl}methyl)amino]phenyl}cyclopropanecarboxylic Acid Trifluoroacetate] | 251 |
| O=C(O)[C@@H]1C[C@H]1c1ccc(NCc2ccc(-c3ccc(C(F)(F)F)cc3)s2)cc1 (racemic) [Example 19, Racemic-(trans)-2-{4-[({5-[4-(trifluoromethyl)phenyl]-2-thienyl}methyl)amino]phenyl}cyclopropanecarboxylic Acid Trifluoroacetate] | 63.1 |
| O=C(O)[C@H]1C[C@@H]1c1ccc(NCc2cccc(Cc3ccccc3)c2)cc1 (racemic) [Example 21, Racemic-(trans)-2-[4-({[3-(phenylmethyl)phenyl]methyl}amino)phenyl]cyclopropanecarboxylic Acid Trifluoroacetate] | 25.1 |
| O=C(O)[C@H]1C[C@@H]1c1ccc(NCc2cccc(Oc3ccc([N+](=O)[O-])cc3)c2)cc1 (racemic) [Example 22, Racemic-(trans)-2-{4-[({3-[(4-nitrophenyl)oxy]phenyl}methyl)amino]phenyl}cyclopropanecarboxylic Acid Trifluoroacetate] | 316 |
